15 compounds from PMC3404749 (Molecular Pharmaceutics, 2012) can be followed below.

Series [1] has as its target T1, expressed human SULT1A3 (Homo sapiens, UniProt P0DMM9). Briefly: Sulfonation activities of flavonoids in expressed human SULT1A3. The class given is in vitro ADME. To be noted: for sulfate detection when SULT1A3 was used: expressed SULT1A3, LC-MS/MS and UPLC; for sulfonation rate: pH 7.4, 37°C, n=3.
Series [2] deals with T1, expressed human SULT1A3. Briefly: Kinetics of flavonoid sulfonation by SULT1A3. As to conditions: for Km1: SULT1A3, 0.039–20 µM substrate; for Kinetic model: SULT1A3, best-fit model by Eadie-Hofstee plot and AIC; for Ksi (substrate inhibition constant): SULT1A3, substrate inhibition model.
For another series, the target named is SULT1A3 (Homo sapiens, UniProt P0DMM9). Briefly: Kinetics of flavonoid sulfonation by SULT1A3. As to conditions: human.
Setting [3] is: expressed SULT1A3, substrate concentration 2.5 µM.
The mark [4] stands for this setting: expressed SULT1A3, substrate concentration 10 µM.

Molecules are shown by their SMILES.

T1 sequence (P0DMM9 whole entry): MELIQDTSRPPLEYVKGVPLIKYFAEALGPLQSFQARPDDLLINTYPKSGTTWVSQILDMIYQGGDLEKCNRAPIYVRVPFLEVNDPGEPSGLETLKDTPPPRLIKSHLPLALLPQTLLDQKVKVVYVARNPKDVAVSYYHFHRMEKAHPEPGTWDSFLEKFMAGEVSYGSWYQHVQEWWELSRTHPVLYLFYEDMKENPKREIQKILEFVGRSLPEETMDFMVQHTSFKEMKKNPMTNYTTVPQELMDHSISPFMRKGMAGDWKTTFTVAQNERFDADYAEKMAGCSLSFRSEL
Chain of SULT1A3 (P0DMM9 whole entry): as above

`O=c1c(O)c(-c2ccc(O)cc2)oc2ccccc12` [3,4’DHF, 3,4'-Dihydroxyflavone]: the “sulfate detection when SULT1A3 was used” value at expressed human SULT1A3 [1] is listed as “not detected”. Also, the sulfonation rate at expressed human SULT1A3 [1] (setting [3]) and at expressed human SULT1A3 [1] (setting [4]) was 0 nmol/hr/mg protein each time.

Regarding `O=c1c(O)c(-c2ccccc2)oc2cc(O)cc(O)c12` [3,5,7THF, 3,5,7-Trihydroxyflavone], the values for the sulfonation rate at expressed human SULT1A3 [1] (setting [3]) and at expressed human SULT1A3 [1] (setting [4]) were 13.88 ± 1.21 nmol/hr/mg protein and 24.98 ± 0.49 nmol/hr/mg protein, respectively.

Regarding `O=c1c(O)c(-c2ccc(O)cc2)oc2cc(O)ccc12` [3,7,4'THF, 3,7,4'-Trihydroxyflavone], the sulfonation rate at expressed human SULT1A3 [1] (setting [3]) is reported as 6.80 ± 1.28 nmol/hr/mg protein; on expressed human SULT1A3 [1] (setting [4]), 11.79 ± 0.33 nmol/hr/mg protein.

Turning to `O=c1c(O)c(-c2ccccc2)oc2cc(O)ccc12` [3,7DHF, 3,7-Dihydroxyflavone], the “Vmax-1/ Km1” value at expressed human SULT1A3 [2] (SULT1A3) was 43000 µL/min/mg. Also, at expressed human SULT1A3 [2], the Km1 came out at 1.85 µM and the Kinetic model entry is recorded as “Sigmoidal kinetics of Hill equation”. Moreover, the sulfonation rate on expressed human SULT1A3 [1] (setting [3]) was found to be 45.84 ± 1.53 nmol/hr/mg protein. In addition, the sulfonation rate at expressed human SULT1A3 [1] (setting [4]) is reported as 74.69 ± 1.05 nmol/hr/mg protein.

For the compound `O=c1c(O)c(-c2ccccc2)oc2ccccc12` [3HF, 3-Hydroxyflavone], on expressed human SULT1A3 [1], the “sulfate detection when SULT1A3 was used” value is “not detected”. The sulfonation rate on expressed human SULT1A3 [1] (setting [3]) and on expressed human SULT1A3 [1] (setting [4]) was 0 nmol/hr/mg protein each time.

As to `O=c1cc(-c2ccc(O)cc2)oc2ccccc12` [4’HF, 4'-Hydroxyflavone], the “sulfate detection when SULT1A3 was used” value at expressed human SULT1A3 [1] was “not detected”. The compound further displayed a sulfonation rate at expressed human SULT1A3 [1] (setting [3]) of 0 nmol/hr/mg protein.

For the compound `O=c1cc(-c2ccccc2)oc2cc(O)cc(O)c12` [5,7DHF, 5,7-Dihydroxyflavone], the Km1 on expressed human SULT1A3 [2] worked out at 2.73 µM. The Kinetic model result on expressed human SULT1A3 [2] was “Biphasic kinetics”. In addition, the “Vmax-2 (biphasic)” value on expressed human SULT1A3 [2] (SULT1A3, biphasic kinetics) came out at 17.38 nmol/min/mg. The Km2 on expressed human SULT1A3 [2] (SULT1A3, biphasic kinetics, low-affinity phase) was 1e-06 mM. For the same compound, the sulfonation rate at expressed human SULT1A3 [1] (setting [3]) stood at 62.30 ± 2.54 nmol/hr/mg protein; at expressed human SULT1A3 [1] (setting [4]) it was 85.37 ± 1.53 nmol/hr/mg protein.

As to `O=c1cc(-c2ccccc2)oc2cccc(O)c12` [5HF, 5-Hydroxyflavone], the “sulfate detection when SULT1A3 was used” value at expressed human SULT1A3 [1] is “not detected”. Further, the sulfonation rate at expressed human SULT1A3 [1] (setting [3]) was 0 nmol/hr/mg protein.

In the case of `O=c1cc(-c2ccc(O)cc2)oc2cc(O)ccc12` [7,4’DHF, 7,4'-Dihydroxyflavone], on expressed human SULT1A3 [2], the Km1 amounted to 3.42 µM, the Kinetic model result is given as “Substrate inhibition” and the “Ksi (substrate inhibition constant)” value is 13.81. The sulfonation rate on expressed human SULT1A3 [1] (setting [3]) is on record as 7.54 ± 0.34 nmol/hr/mg protein. Besides, on expressed human SULT1A3 [1] (setting [4]), the sulfonation rate amounted to 10.30 ± 1.64 nmol/hr/mg protein.

The term microsomal CLint denotes a measure of how fast metabolising enzymes remove a compound, apart from limits set by blood flow. Read a high microsomal CLint as faster metabolism. With `O=c1cc(-c2ccccc2)oc2cc(O)ccc12` [7HF, 7-Hydroxyflavone], on expressed human SULT1A3 [2], the Km1 was 2.80 µM, the Kinetic model result is listed as “substrate inhibition kinetics” and the “Ksi (substrate inhibition constant)” value is on record as 23.12. On SULT1A3, this compound registered a microsomal CLint of 30400 µL/min/mg. The sulfonation rate on expressed human SULT1A3 [1] (setting [3]) is recorded as 35.66 ± 4.72 nmol/hr/mg protein. Also, the sulfonation rate at expressed human SULT1A3 [1] (setting [4]) was determined as 48.92 ± 5.18 nmol/hr/mg protein.

With `O=c1cc(-c2ccc(O)cc2)oc2cc(O)cc(O)c12` [apigenin, 5,7,4'-Trihydroxyflavone], the sulfonation rate on expressed human SULT1A3 [1] (setting [3]) came out at 19.00 ± 1.58 nmol/hr/mg protein; on expressed human SULT1A3 [1] (expressed SULT1A3, substrate concentration 2.5 µM, listed as 5,7,4'THF), 19.00±1.58 nmol/hr/mg protein; at expressed human SULT1A3 [1] (setting [4]), 19.36 ± 0.41 nmol/hr/mg protein.

For `O=c1c(-c2ccc(O)cc2)coc2cc(O)cc(O)c12` [genistein, Genistein], the “sulfate detection when SULT1A3 was used” value at expressed human SULT1A3 [1] is “not detected”. For the same compound, the sulfonation rate at expressed human SULT1A3 [1] (setting [3]) and at expressed human SULT1A3 [1] (setting [4]) was 0 nmol/hr/mg protein throughout.

On to `O=c1c(O)c(-c2ccc(O)cc2)oc2cc(O)cc(O)c12` [kaempferol, 3,5,7,4’tetrahydroxyflavone], for which the sulfonation rate on expressed human SULT1A3 [1] (setting [3]) is 3.78 ± 0.79 nmol/hr/mg protein; at expressed human SULT1A3 [1] (setting [4]), 5.77 ± 0.22 nmol/hr/mg protein.

As for `O=C1C[C@@H](c2ccc(O)cc2)Oc2cc(O)cc(O)c21` [naringenin, Naringenin], the results for the sulfonation rate at expressed human SULT1A3 [1] (setting [3]) and at expressed human SULT1A3 [1] (setting [4]) were 3.21 ± 0.36 nmol/hr/mg protein and 12.03 ± 0.94 nmol/hr/mg protein, respectively.

Take `O=C(CCc1ccc(O)cc1)c1c(O)cc(O)cc1O` [phloretin, Phloretin]: the sulfonation rate on expressed human SULT1A3 [1] (setting [3]) and at expressed human SULT1A3 [1] (setting [4]) was 0 nmol/hr/mg protein in each case.
